# US11236086B2, “Substituted pyrrolopyridines as inhibitors of activin receptor-like kinase” (BLUEPRINT MEDICINES CORPORATION, priority 2017, dated 2022)
# Target: T1, ALK2R206H (mutant ALK2, N-terminally tagged with GST) (Homo sapiens, UniProt Q04771, R206H)
# T1 construct: purchased Carna Bioscience or ThermoFisher 09-148 or PV6232
# T1 sequence (Q04771 21-509 R206H): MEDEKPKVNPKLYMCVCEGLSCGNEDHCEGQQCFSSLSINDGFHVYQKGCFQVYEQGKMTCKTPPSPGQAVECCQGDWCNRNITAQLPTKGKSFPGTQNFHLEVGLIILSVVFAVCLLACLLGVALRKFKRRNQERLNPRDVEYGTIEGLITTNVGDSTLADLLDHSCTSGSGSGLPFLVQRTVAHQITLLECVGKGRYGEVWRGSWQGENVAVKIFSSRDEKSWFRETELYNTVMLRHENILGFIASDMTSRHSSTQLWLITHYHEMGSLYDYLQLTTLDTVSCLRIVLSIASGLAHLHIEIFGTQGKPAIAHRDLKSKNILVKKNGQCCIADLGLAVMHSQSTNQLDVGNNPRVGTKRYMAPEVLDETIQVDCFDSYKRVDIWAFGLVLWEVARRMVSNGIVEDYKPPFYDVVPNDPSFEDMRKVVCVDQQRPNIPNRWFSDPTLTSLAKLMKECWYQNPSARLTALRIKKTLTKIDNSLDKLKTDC
# Assay: ALK binding assay (LANTHASCREEN TR-FRET competitive binding, displacement of Kinase Tracer 178)
# Settings: read-out: Binding Assay (IC50 class)
# Protocol: Example 10 ALK Binding Assays
# Binding assays were conducted using the LANTHASCREEN® technology (ThermoFisher Scientific). LANTHASCREEN® is a competitive binding, displacement assay where the assumed steady state occupancy of the binding site is measured using a time-resolved, fluorescence energy transfer (TR-FRET) readout between a fluorescent tracer and Europium (Eu)-tagged antibody specific for the kinase or expression tag (e.g., GST) of interest. Displacement of the tracer by a compound of the disclosure reduces, and is directly proportional to, the TR-FRET between the tracer and the antibody. Tracer was used at a concentration equal to or near to its Kd for the kinase. The Eu-tagged antibody was typically used in excess to ensure sampling of all competent protein capable of binding the tracer.
# For these assays, a mutant ALK2 was used that was N-terminally tagged with GST (ALK2R206H Carna Bioscience (09-148) or ALK2R206H ThermoFisher (PV6232)); a Eu-tagged anti-GST antibody (ThermoFisher) and Kinase Tracer 178 (ThermoFisher).
# In all cases, the kinase (2-5 nM) was mixed with Eu-tagged antibody (4-10 nM) mix and tracer (50 nM) were incubated with test compound titrations prepared in 100% DMSO (1% DMSO final) for 30 minutes at room temperature. All reagents and compounds were dissolved in Kinase Buffer A (ThermoFisher) to achieve the final concentration. The plates were read on a PerkinElmer EnVision® multilabel plate reader or a BioTek Synergy Neo plate reader, and the assay signal was represented as a ratio of the TR-FRET emission (λex 330 nm, λ^em […] and λ^em 665 nm). This readout was normalized to 0% and 100% inhibited control wells, plotted against inhibitor concentration, and fitted to a 4-parameter log dose response curve.
# The results of this assay are shown in Table 3 in the column labelled “Binding Assay” wherein “A” represents an IC50 of less than or equal to 10 nM; “B” represents an IC50 of greater than 10 nM and less than or equal to 50 nM; and “C” represents an IC50 of greater than 50 nM. Blank values in the table indicate that the particular compound was not tested in this assay.
row,IC50,SMILES
1,≤ 10 nM,O=C(OC1COC1)N1CCN(c2ccnc3[nH]c(-c4nc5c(s4)COCC5)c(Cl)c23)CC1 [Compound 443]
2,10 to 50 nM,Cc1cnc(-c2cc3c(N4CCN(C(=O)OC5COC5)CC4)ccnc3[nH]2)o1 [Compound 108]
3,10 to 50 nM,COc1ccc(-c2cc3c(N4CCN(C(=O)C5CC5)CC4)ccnc3[nH]2)cn1 [Compound 62]
4,≤ 10 nM,CCN1CCN(c2ccc(-c3cc4c(N5CCN(C(=O)C6CC6)CC5)ccnc4[nH]3)c3ncccc23)CC1 [Compound 471]
5,≤ 10 nM,N#Cc1csc(-c2cc3c(N4CCN(C(=O)OC5COC5)CC4)ccnc3[nH]2)n1 [Compound 230]
6,≤ 10 nM,CC(C)OCCOC(=O)N1CCN(c2ccnc3[nH]c(-c4cnn(C)c4)cc23)CC1 [Compound 247]
7,≤ 10 nM,O=C(OC1COC1)N1CCN(c2ccnc3[nH]c(-c4ncccn4)cc23)CC1 [Compound 73]
8,10 to 50 nM,Cn1cc(-c2cc3c(N4CCN(C(=O)C(C)(C)CO)CC4)ccnc3[nH]2)cn1 [Compound 101]
9,≤ 10 nM,N#Cc1cc(C2(O)CCOCC2)ccc1-c1cc2c(N3CCN(C(=O)OC4COC4)CC3)ccnc2[nH]1 [Compound 465]
10,≤ 10 nM,Cn1cnc(-c2cc3c(N4CCN(C(=O)O[C@H]5CC(F)(F)C5(F)F)CC4)ccnc3[nH]2)c1 [Compound 402]
11,10 to 50 nM,Cc1ccc(-c2cc3c(N4CCN(C(=O)C5CC5)CC4)ccnc3[nH]2)cc1 [Compound 16]
12,≤ 10 nM,Cc1nc(-c2[nH]c3nccc(N4CCN(C(=O)OC5COC5)CC4)c3c2Cl)sc1C [Compound 391]
13,≤ 10 nM,Cn1cc(-c2cc3c(N4CCN(C(=O)OCC5(C)CC5)CC4)ccnc3[nH]2)cn1 [Compound 142]
14,> 50 nM,CCOc1ccc(-c2cc3c(N4CCN(C(=O)C5CC5)CC4)ccnc3[nH]2)c(Cl)c1 [Compound 309]
15,≤ 10 nM,CCOC(=O)N1CCN(c2ccnc3[nH]c(-c4cccc(OC)n4)cc23)CC1 [Compound 85]
16,≤ 10 nM,Cn1cc(-c2cc3c(N4CCN(C(=O)OCC5(C)COC5)CC4)ccnc3[nH]2)cn1 [Compound 236]
17,≤ 10 nM,Cn1cc(-c2cc3c(N4CCN(C(=O)OCC5CCC5)CC4)ccnc3[nH]2)cn1 [Compound 143]
18,10 to 50 nM,O=C(C1CC1)N1CCN(c2ccnc3[nH]c(-c4ccccc4)cc23)CC1 [Compound 3]
19,≤ 10 nM,Cc1nc(-c2[nH]c3nccc(N4CCN(C(=O)OC5COC5)CC4)c3c2C#N)sc1C [Compound 360]
20,≤ 10 nM,Cn1cc(-c2cc3c(N4CCN(C(=O)[C@H]5C[C@H](F)C5)CC4)ccnc3[nH]2)cn1 [Compound 94]
21,≤ 10 nM,Cc1nc(-c2cc3c(N4CCN(C(=O)O[C@H]5CCC5(F)F)CC4)ccnc3[nH]2)cn1C [Compound 327]

row,IC50,SMILES
1,10 to 50 nM,O=C(C1CC1)N1CCN(c2ccnc3[nH]c(-c4ccc(Cl)cc4)cc23)CC1 [Compound 84]
2,≤ 10 nM,Cc1nc(-c2[nH]c3nccc(N4CCN(C(=O)OC5COC5)CC4)c3c2C#N)co1 [Compound 216]
3,10 to 50 nM,Cn1cc(-c2cc3c(N4CCN(C(=O)OCCS(C)(=O)=O)CC4)ccnc3[nH]2)cn1 [Compound 338]
4,> 50 nM,O=C(C1CC1)N1CCN(c2ccnc3[nH]c(-c4ccc(C(F)(F)F)cc4Cl)cc23)CC1 [Compound 393]
5,10 to 50 nM,O=C(C1CC1)N1CCN(c2ccnc3[nH]c(-c4cccnc4)cc23)CC1 [Compound 4]
6,≤ 10 nM,Cn1cc(-c2cc3c(N4CCN(C(=O)OCCOC(C)(C)C)CC4)ccnc3[nH]2)cn1 [Compound 314]
7,10 to 50 nM,O=C(OC1COC1)N1CCN(c2ccnc3[nH]c(-c4cnccn4)cc23)CC1 [Compound 74]
8,≤ 10 nM,O=C(OC1COC1)N1CCN(c2ccnc3[nH]c(-c4cn[nH]c4)cc23)CC1 [Compound 36]
9,≤ 10 nM,Cn1cc(-c2cc3c(N4CCN(C(=O)[C@@H]5CCOC5)CC4)ccnc3[nH]2)cn1 [Compound 79]
10,> 50 nM,CCOCC(=O)N1CCN(c2ccnc3[nH]c(-c4cnn(C)c4)cc23)CC1 [Compound 43]
11,10 to 50 nM,CC(C)(C)c1cnc(-c2cc3c(N4CCN(C(=O)OC5COC5)CC4)ccnc3[nH]2)s1 [Compound 373]
12,10 to 50 nM,Cc1c(-c2cc3c(N4CCN(C(=O)C5CC5)CC4)ccnc3[nH]2)cnn1C [Compound 22]
13,10 to 50 nM,Cc1nnc(-c2cc3c(N4CCN(C(=O)OC5COC5)CC4)ccnc3[nH]2)o1 [Compound 110]
14,10 to 50 nM,O=C(C1CC1)N1CCN(c2ccnc3[nH]c(-c4ccc(Oc5ccccc5)cc4)cc23)CC1 [Compound 361]
15,≤ 10 nM,Cc1nnc(-c2cc3c(N4CCN(C(=O)OC5COC5)CC4)ccnc3[nH]2)s1 [Compound 181]
16,≤ 10 nM,Cn1cc(-c2cc3c(N4CCN(C(=O)OCC5CCCO5)CC4)ccnc3[nH]2)cn1 (stereo not shown) [Compound 238]
17,10 to 50 nM,COCC(C)OC(=O)N1CCN(c2ccnc3[nH]c(-c4cnn(C)c4)cc23)CC1 (stereo not shown) [Compound 165]
18,10 to 50 nM,Cn1cc(-c2cc3c(N4CCN(C(=O)[C@H]5CC[C@@H](O)CC5)CC4)ccnc3[nH]2)cn1 [Compound 223]
19,≤ 10 nM,CCc1c(-c2cnn(C)c2)[nH]c2nccc(N3CCN(C(=O)OC4COC4)CC3)c12 [Compound 237]
20,≤ 10 nM,O=C(OC1COC1)N1CCN(c2ccnc3[nH]c(-c4csc(C(=O)N5CCCC5)n4)cc23)CC1 [Compound 448]
21,≤ 10 nM,CC(C)(O)c1csc(-c2cc3c(N4CCN(C(=O)OC5COC5)CC4)ccnc3[nH]2)n1 [Compound 379]

row,IC50,SMILES
1,≤ 10 nM,Cn1cc(-c2cc3c(N4CCN(C(=O)O[C@@H]5CCOC5)CC4)ccnc3[nH]2)cn1 [Compound 154]
2,10 to 50 nM,"O=C(OC1COC1)N1CCN(c2ccnc3[nH]c(-c4nc(C(F)(F)F)cs4)cc23)CC1 [Compound 410, oxetan-3-yl 4-(2-(4-(trifluoromethyl)thiazol-2-yl)-1H-pyrrolo[2,3-b]pyridin-4-yl)piperazine-1-carboxylate]"
3,> 50 nM,CC(C)c1[nH]ncc1-c1cc2c(N3CCN(C(=O)OC4COC4)CC3)ccnc2[nH]1 [Compound 239]
4,10 to 50 nM,CC(C)Oc1ccc(-c2cc3c(N4CCN(C(=O)C5CC5)CC4)ccnc3[nH]2)c(Cl)c1 [Compound 364]
5,≤ 10 nM,Cn1cc(-c2cc3c(N4CCN(C(=O)OCC5CC5)CC4)ccnc3[nH]2)cn1 [Compound 80]
6,10 to 50 nM,O=C(C1CC1)N1CCN(c2ccnc3[nH]c(-c4cccc(F)c4)cc23)CC1 [Compound 17]
7,> 50 nM,Cc1n[nH]c(C)c1-c1cc2c(N3CCN(C(=O)OC4COC4)CC3)ccnc2[nH]1 [Compound 157]
8,> 50 nM,Cn1cc(C#N)c(-c2cc3c(N4CCN(C(=O)OC5COC5)CC4)ccnc3[nH]2)n1 [Compound 211]
9,10 to 50 nM,CCOC(=O)N1CCN(c2ccnc3[nH]c(-c4cnc(C)nc4)cc23)CC1 [Compound 31]
10,10 to 50 nM,Cc1ccc(-c2cc3c(N4CCN(C(=O)C5CC5)CC4)ccnc3[nH]2)c(F)c1 [Compound 63]
11,10 to 50 nM,CCc1ccc(-c2cc3c(N4CCN(C(=O)C5CC5)CC4)ccnc3[nH]2)c(Cl)c1 [Compound 226]
12,≤ 10 nM,Cc1[nH]ncc1-c1cc2c(N3CCN(C(=O)OC4COC4)CC3)ccnc2[nH]1 [Compound 92]
13,≤ 10 nM,Cn1cc(-c2cc3c(N4CCN(C(=O)OCCOC5CCCCC5)CC4)ccnc3[nH]2)cn1 [Compound 405]
14,10 to 50 nM,CCOC(=O)N1CCN(c2ccnc3[nH]c(-c4cnn(C)c4)c(S(C)(=O)=O)c23)CC1 [Compound 339]
15,≤ 10 nM,CCOC(=O)N1CCN(c2ccnc3[nH]c(-c4ncc(C#N)cn4)cc23)CC1 [Compound 61]
16,≤ 10 nM,CCOC(=O)N1CCN(c2ccnc3[nH]c(-c4ncccn4)cc23)CC1 [Compound 9]
17,≤ 10 nM,CC(C)(C)OC(=O)NC1(c2ccc(-c3cc4c(N5CCN(C(=O)C6CC6)CC5)ccnc4[nH]3)cc2)CC1 [Compound 463]
18,≤ 10 nM,N#Cc1ncc(-c2cc3c(N4CCN(C(=O)OC5COC5)CC4)ccnc3[nH]2)s1 [Compound 229]
19,≤ 10 nM,O=C(C1CC1)N1CCN(c2ccnc3[nH]c(-c4ccc(CO)cc4)cc23)CC1 [Compound 57]
